In patent publication US4495199A, “Dioxolanic amine with pharmacological activity, its method of preparation, the pharmaceutical compositions containing same and their use in human medicine” (priority 1982, dated 1985):
Structures can show the parent of a compound that is named as a salt.

What was measured:
[1] = system: fibrillation by chloroform in the male NMRI mouse; assay: Anti-arrhythmic activity, fibrillation by chloroform in the mouse, p.o.; type: in vivo
Description: Tables 5 and 6 show the anti-arrythmic activity of the ITA 362 in the male NMRI mouse by oral and intraperitoneal route using the fibrillation test by chloroform in the mouse. (V. W. Lawson, J. Pharmacol. Exp. Ther. 160, 22, 1968; B. Vargaftig, J. L. Coignet. Eur.J. Pharmacol. 6, 49, 1969).
The activity of the two forms of maleate described in the example 4 were studied, with that in the table subtitled as isomer A corresponding to the first fraction obtained in the aforementioned example, and isomer B corresponding to the second fraction.

Hygroscopicity = type: physicochemical
rat = assay: Acute toxicity, oral, rat; type: in vivo
Experimental: (§1) The respective lethal dose 50 was calculated according to the method of Litchfield and Wilcoxon (Jl. Pharmacol. Exptl. 96 99, 1949).

mouse = assay: Acute toxicity, oral, mouse; type: in vivo
Experimental: as §1

hindquarters of rats = assay: Vasodilatory activity, perfusion of the hindquarters of rats with a hyperpotasemic solution; parameters: species or system rat; settings: summary statement
Description: In the Table 3 is shown the results of the vasodilatory activity of the ITA 362 in the perfusion test of the hindquarters of rats with a hyperpotasemic solution. (F. N. Fastier, F. M. Smirk. Jl, Pharmacolog. Exp. Therapy. 89. 256, 1947).

[2] = system: T wave in the conscious dog; assay: Anti-angina activity, amplitude increase protection of the T wave by vasopression in the conscious dog; type: in vivo
Description: The antiangina activity was also compared with that of the nitroglycerine by means of the amplitude increase protection test of the T wave for vasopression in the conscious dog. (A. Lindner, M. London, G. Werner, Scheiz. Med. Wsohr. 83, 360, 1953; J. Papp. L. Szekeres. Arch. Int. Pharmacodyn, 160, 1, 1966).

CCCCNCC1COC(c2ccc(Cl)cc2)(c2cc3ccccc3o2)O1 (single isomer, unassigned) [ITA 362 maleate (isomer A)]
ED50 ([1]; Mus musculus, po, read-out: ED50 and confidence limits p < 0.05, p.o., dose column in mg/kg): 35.4 mg/kg

CCCCNCC1COC(c2ccc(Cl)cc2)(c2cc3ccccc3o2)O1 (stereo not drawn) [ITA 362 citrate]
% protection versus fibrillation ([1]; 3.125 mg/kg p.o.): 10% | hygroscopicity (Hygroscopicity): highly hydroscopic

CCCCNCC1COC(c2ccc(Cl)cc2)(c2cc3ccccc3o2)O1 (stereo not drawn) [ITA 362 maleate, 2-(2'-benzofuranil)-4-butylaminomethyl-2-p-chlorophenyl-1,3-dioxolane, maleate]
LD50 (rat; rat, oral): > 4000 mg/kg | LD50 (mouse): > 4000 mg/kg

CCCCNCC1COC(c2ccc(Cl)cc2)(c2cc3ccccc3o2)O1 (stereo not drawn) [ITA 362, 2-(2'-benzofuranil)-4-n-butylaminomethyl-2-p-chlorophenyl-1,3-dioxolan]
toxicity (in words) (rat; summary statement, species not specified): low toxicity | vasodilatory activity (in words) (hindquarters of rats): intense | Antiangina activity relative to nitroglycerine ([2]; 1 mg/kg i.v. vs nitroglycerine 0.4 mg/kg): greater than that of nitroglycerine | anti-angina activity (in words) ([2]; summary statement): intense | anti-arrhythmic activity (in words) ([1]; summary statement): intense

O=[N+]([O-])OCC(CO[N+](=O)[O-])O[N+](=O)[O-] [Nitroglycerine, reference compound]
quot. Control/treatment ([2]; 0.4 mg/kg i.v.): 1.520 | % Prot. ([2]; 0.4 mg/kg i.v., t student n.s.): 28.9%
